Like-named read-outs stand apart in the source and are kept apart here.
Key:
[1] = biological target: T1, purified LasB protein from P. aeruginosa (Pseudomonas aeruginosa, UniProt P14756); assay: Fluorometric assay to determine Ki (Abz-Ala-Gly-Leu-Ala-p-Nitro-Benzyl-Amide substrate); format: biochemical
T1 construct: purchased Merck or Charles River Laboratories
Method in brief: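 Purified P. aeruginosa LasB (10–140 ng/ml) with 250 µM Abz-Ala-Gly-Leu-Ala-p-nitrobenzylamide in 50 mM Tris-HCl pH 7.4, 2.5 mM CaCl2, 0.01% Triton X100, 37 °C; hydrolysis fluorescence (Ex 340/Em 415 nm) followed over 30 min, inhibitor 0.0016–200 µM. Ki = IC50/(1+[S]/Km), Km 214 µM.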

LasB = biological target: T2, LasB (Pseudomonas aeruginosa, UniProt P14756); assay: Elastin assay to determine % inhibition (Elastin Congo-Red, dialysed culture supernatant); format: biochemical, P. aeruginosa PAO1; conditions: read-out: Elastin hydrolysis % inhibition @ 50 / 25 µM inhibitor concentration
T2 construct: uses as source of enzyme dialysed supernatant from P. aeruginosa PAO1; endogenous in cells; host or cells: P. aeruginosa PAO1 culture supernatant, filtered and dialysed
T2 sequence (P14756 198-498): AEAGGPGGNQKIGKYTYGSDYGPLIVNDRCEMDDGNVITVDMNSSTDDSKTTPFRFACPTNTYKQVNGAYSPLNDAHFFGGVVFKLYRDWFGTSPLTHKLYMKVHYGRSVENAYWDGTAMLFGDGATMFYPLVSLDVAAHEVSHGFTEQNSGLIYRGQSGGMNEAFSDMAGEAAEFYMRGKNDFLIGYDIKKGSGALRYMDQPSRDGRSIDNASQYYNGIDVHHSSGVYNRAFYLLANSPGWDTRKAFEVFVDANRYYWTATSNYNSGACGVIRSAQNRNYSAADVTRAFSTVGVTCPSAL
Method in brief: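 Enzyme source was dialysed PAO1 culture supernatant (50 mM Tris-HCl pH 7.4, 2.5 mM CaCl2), mixed with Elastin Congo-Red and 0.01% Triton X-100. Compound was routinely 50 to 1.56 µM, incubated overnight at 37 °C with shaking. Dye release at OD495 gave % inhibition relative to DMSO and no-enzyme controls.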

T1 sequence (P14756 198-498): as above

| Structure (SMILES) | Ki [1] [nM] | inhibition at 25 µM (LasB) [%] | Ki ([1]; Ki calculated from IC50, [S] = 250 µM, Km = 214 µM, 37°C, pH 7.4) [nM] |
| --- | --- | --- | --- |
| COc1cc(OCCN2CCOCC2)ccc1-c1csc(CNC(=O)C2(CC(=O)O)Cc3ccccc3C2)n1 [Example 76, 2-[2-[[4-[2-methoxy-4-(2-morpholinoethoxy)phenyl]thiazol-2-yl]methylcarbamoyl]indan-2-yl]acetic acid] | < 50 | > 75 |  |
| COc1cc(OCc2ccc[n+](C)c2)ccc1-c1csc(CNC(=O)C2(CC(=O)[O-])Cc3ccccc3C2)n1 [Example 77, 2-[2-[[4-[2-methoxy-4-[(1-methylpyridin-1-ium-3-yl)methoxy]phenyl]thiazol-2-yl]methylcarbamoyl]indan-2-yl]acetate] | 50 to 200 | 10 to 60 |  |
| COc1cc(OCc2cccnc2)ccc1-c1csc(CNC(=O)C2(CC(=O)O)Cc3ccccc3C2)n1 [Example 78, 2-[2-[[4-[2-methoxy-4-(3-pyridylmethoxy)phenyl]thiazol-2-yl]methylcarbamoyl]indan-2-yl]acetic acid] | < 50 | > 75 |  |
| COc1cc(OCC(=O)N2CC[N+](C)(C)CC2)ccc1-c1csc(CNC(=O)C2(CC(=O)[O-])Cc3ccccc3C2)n1 [Example 79, 2-[2-[[4-[4-[2-(4,4-dimethylpiperazin-4-ium-1-yl)-2-oxo-ethoxy]-2-methoxy-phenyl]thiazol-2-yl]methylcarbamoyl]indan-2-yl]acetate] | 50 to 200 | 60 to 75 |  |
| COc1cc(OCCCN(C)C)ccc1-c1csc(CNC(=O)C2(CC(=O)O)Cc3cc(F)c(F)cc3C2)n1 [Example 80, 2-[2-[[4-[4-[3-(dimethylamino)propoxy]-2-methoxyphenyl]thiazol-2-yl]methylcarbamoyl]-5,6-difluoro-indan-2-yl]acetic acid] | 50 to 200 | 60 to 75 |  |
| COc1cc(OCCC[N+](C)(C)C)ccc1-c1csc(CNC(=O)C2(CC(=O)[O-])Cc3cc(F)c(F)cc3C2)n1 [Example 81, 2-[5,6-difluoro-2-[[4-[2-methoxy-4-[3-(trimethylammonio)propoxy]phenyl]thiazol-2-yl]methylcarbamoyl]indan-2-yl] acetate] | 50 to 200 | 60 to 75 |  |
| COc1cc(OCC(=O)N2CC[N+](C)(C)CC2)ccc1-c1csc(CNC(=O)C2(CC(=O)[O-])Cc3cc(F)c(F)cc3C2)n1 [Example 82, 2-[2-[[4-[4-[2-(4,4-dimethylpiperazin-4-ium-1-yl)-2-oxo-ethoxy]-2-methoxy-phenyl]thiazol-2-yl]methylcarbamoyl]-5,6-difluoro-indan-2-yl]acetate] | 50 to 200 | 60 to 75 |  |
| COc1cc(OCCN2CCN(C)C(=O)C2)ccc1-c1csc(CNC(=O)C2(CC(=O)O)Cc3ccccc3C2)n1 [Example 83, 2-[2-[[4-[2-methoxy-4-[2-(4-methyl-3-oxo-piperazin-1-yl)ethoxy]phenyl]thiazol-2-yl]methylcarbamoyl]indan-2-yl]acetic acid] | < 50 | > 75 |  |
| COc1cc(OCC[N+]2(C)CCN(C)C(=O)C2)ccc1-c1csc(CNC(=O)C2(CC(=O)[O-])Cc3ccccc3C2)n1 (stereo not shown) [Example 84, 2-[2-[[4-[4-[2-(1,4-dimethyl-3-oxo-piperazin-1-ium-1-yl)ethoxy]-2-methoxy-phenyl]thiazol-2-yl]methylcarbamoyl]indan-2-yl]acetate] | 50 to 200 | 60 to 75 |  |
| COc1cc(OCCc2nccn2C)ccc1-c1csc(CNC(=O)C2(CC(=O)O)Cc3ccccc3C2)n1 [Example 85, 2-[2-[[4-[2-methoxy-4-[2-(1-methylimidazol-2-yl)ethoxy]phenyl]thiazol-2-yl]methylcarbamoyl]indan-2-yl]acetic acid] | 50 to 200 | 60 to 75 |  |
| COc1cc(OCCc2n(C)cc[n+]2C)ccc1-c1csc(CNC(=O)C2(CC(=O)[O-])Cc3cc(F)c(F)cc3C2)n1 [Example 86, 2-[2-[[4-[4-[2-(1,3-dimethylimidazol-1-ium-2-yl)ethoxy]-2-methoxy-phenyl]thiazol-2-yl]methylcarbamoyl]-5,6-difluoro-indan-2-yl]acetate] | 50 to 200 | 60 to 75 |  |
| Cn1cc[n+](C)c1CCOc1ccc(-c2csc(CNC(=O)C3(CC(=O)[O-])Cc4ccccc4C3)n2)cc1 [Example 87, 2-[2-[[4-[4-[2-(1,3-dimethylimidazol-1-ium-2-yl)ethoxy]phenyl]thiazol-2-yl]methylcarbamoyl]indan-2-yl]acetate] | 50 to 200 | 10 to 60 |  |
| COc1cc(OCCN2CCN(C(C)=O)CC2)ccc1-c1csc(CNC(=O)C2(CC(=O)O)Cc3ccccc3C2)n1 [Example 88] | < 50 | > 75 |  |
| Cn1cc(-c2csc(CNC(=O)C3(CC(=O)O)Cc4ccccc4C3)n2)cn1 [Example 89, 2-[2-[[4-(1-methylpyrazol-4-yl)thiazol-2-yl]methylcarbamoyl]indan-2-yl]acetic acid] | 50 to 200 | 60 to 75 |  |
| Cn1ccc(-c2csc(CNC(=O)C3(CC(=O)O)Cc4ccccc4C3)n2)n1 [Example 90, 2-[2-[[4-(1-methylpyrazol-3-yl)thiazol-2-yl]methylcarbamoyl]indan-2-yl]acetic acid] | 200 to 10000 | 60 to 75 |  |
| Cc1c(-c2csc(CNC(=O)C3(CC(=O)O)Cc4ccccc4C3)n2)cnn1C [Example 91, 2-[2-[[4-(1,5-dimethylpyrazol-4-yl)thiazol-2-yl]methylcarbamoyl]indan-2-yl]acetic acid] | 50 to 200 | > 75 |  |
| Cn1nccc1-c1csc(CNC(=O)C2(CC(=O)O)Cc3ccccc3C2)n1 [Example 92, 2-[2-[[4-(2-methylpyrazol-3-yl)thiazol-2-yl]methylcarbamoyl]indan-2-yl]acetic acid] | 50 to 200 | 60 to 75 |  |
| Cc1nn(C)cc1-c1csc(CNC(=O)C2(CC(=O)O)Cc3ccccc3C2)n1 [Example 93, 2-[2-[[4-(1,3-dimethylpyrazol-4-yl)thiazol-2-yl]methylcarbamoyl]indan-2-yl]acetic acid] | 50 to 200 | 60 to 75 |  |
| O=C(O)CC1(C(=O)NCc2nc(-c3cncnc3)cs2)Cc2ccccc2C1 [Example 94, 2-[2-[(4-pyrimidin-5-ylthiazol-2-yl)methylcarbamoyl]indan-2-yl]acetic acid] | 200 to 10000 | 60 to 75 |  |
| O=C(O)CC1(C(=O)NCc2nc(-c3ccncc3)cs2)Cc2ccccc2C1 [Example 95, 2-[2-[[4-(4-pyridyl)thiazol-2-yl]methylcarbamoyl]indan-2-yl]acetic acid] | 200 to 10000 | 60 to 75 |  |
| O=C(O)CC1(C(=O)NCc2nc(-c3cnn(CCN4CCOCC4)c3)cs2)Cc2ccccc2C1 [Example 96, 2-[2-[[4-[1-(2-morpholinoethyl)pyrazol-4-yl]thiazol-2-yl]methylcarbamoyl]indan-2-yl]acetic acid] | 50 to 200 | 60 to 75 |  |
| Cc1cc(-c2csc(CNC(=O)C3(CC(=O)O)Cc4ccccc4C3)n2)n[nH]1 [Example 98, 2-[2-[[4-(5-methyl-1H-pyrazol-3-yl)thiazol-2-yl]methylcarbamoyl]indan-2-yl] acetic acid] | 200 to 10000 | 60 to 75 |  |
| O=C(O)CC1(C(=O)NCc2nc(-c3cnn(CCCN4CCOCC4)c3)cs2)Cc2ccccc2C1 [Example 99, 2-[2-[[4-[1-(3-morpholinopropyl)pyrazol-4-yl]thiazol-2-yl]methylcarbamoyl]indan-2-yl]acetic acid] | 50 to 200 | 60 to 75 |  |
| CN1CCN(C(=O)Cn2cc(-c3csc(CNC(=O)C4(CC(=O)O)Cc5ccccc5C4)n3)cn2)CC1 [Example 101] |  | 60 to 75 | 200 to 10000 |
| CN1CCC(n2cc(-c3csc(CNC(=O)C4(CC(=O)O)Cc5ccccc5C4)n3)cn2)CC1 [Example 102, 2-[2-[[4-[1-(1-methyl-4-piperidyl)pyrazol-4-yl]thiazol-2-yl]methylcarbamoyl]indan-2-yl]acetic acid] | 200 to 10000 | 60 to 75 |  |
| CN(C)CC(=O)N1CCC(n2cc(-c3csc(CNC(=O)C4(CC(=O)O)Cc5ccccc5C4)n3)cn2)CC1 [Example 103, 2-[2-[[4-[1-[1-[2-(dimethylamino)acetyl]-4-piperidyl]pyrazol-4-yl]thiazol-2-yl]methylcarbamoyl]indan-2-yl]acetic acid] | 200 to 10000 | 60 to 75 |  |
| CN1CCN(C(=O)N2CCC(n3cc(-c4csc(CNC(=O)C5(CC(=O)O)Cc6ccccc6C5)n4)cn3)CC2)CC1 [Example 104, 2-[2-[[4-[1-[1-(4-methylpiperazine-1-carbonyl)-4-piperidyl]pyrazol-4-yl]thiazol-2-yl]methylcarbamoyl]indan-2-yl]acetic acid] | 50 to 200 | 60 to 75 |  |
| CN1CCN(C(=O)CN2CCC(n3cc(-c4csc(CNC(=O)C5(CC(=O)O)Cc6ccccc6C5)n4)cn3)CC2)CC1 [Example 105, 2-[2-[[4-[1-[1-[2-(4-methylpiperazin-1-yl)-2-oxo-ethyl]-4-piperidyl]pyrazol-4-yl]thiazol-2-yl]methylcarbamoyl]indan-2-yl]acetic acid] | 50 to 200 | 60 to 75 |  |
| CC(=O)N1CCN(CCCn2cc(-c3csc(CNC(=O)C4(CC(=O)O)Cc5ccccc5C4)n3)cn2)CC1 [Example 106, 2-[2-[[4-[1-[3-(4-acetylpiperazin-1-yl)propyl]pyrazol-4-yl]thiazol-2-yl]methylcarbamoyl]indan-2-yl]acetic acid] | 50 to 200 | 60 to 75 |  |

— patent EP3628672A1 (priority 2018, dated 2020)
